Source: patent US20210115398A1, “CORNEAL TISSUE CULTURE SYSTEM AND CORNEAL TISSUE CULTURE METHOD THEREOF” (Chang Gung Memorial Hospital, Linkou, priority 2019, published 2021)

How the values were obtained:
[1] = test system: rabbit corneal endothelial cells; assay: Dose-response test: rabbit corneal endothelial cells co-cultivated with rabbit corneal stroma cells; type: cell-based; settings: 20 μmol/L LPA, 5 days of cultivation, co-culture with corneal stroma cells
Method: The tissue culture media (DMEM, 10% FBS, 25 μg/mL gentamycin) added with 0 μmol/L, 10 μmol/L, 20 μmol/L, and 100 μmol/L of LPA were used for co-cultivating the rabbit corneal endothelial cells and the rabbit corneal stroma cells at 37° C. with 5% CO2. After 5 days of cultivation, the cell number of the rabbit corneal endothelial cells of each groups were calculated and shown in FIG. 6. […] According to the result, the tissue culture media used for the following experiments was added with 20 μmol/L LPA.

[2] = test system: corneal endothelial cells of rabbit corneal tissue; assay: Evaluation of the corneal endothelial cell density of the corneal tissue (tissue culture dish 100); type: cell-based; settings: 20 μmol/L LPA
Method: The rabbit corneal tissues were placed individually in the tissue culture dishes 100, cultivated with the tissue culture media (DMEM basal medium, 10% FBS, and 25 μg/mL gentamycin) added with 20 μmol/L LPA (Example) or without LPA (Comparative example), and incubated at 37° C. with 5% CO2, wherein a portion of the corneal epithelium layer of the rabbit corneal tissues faced toward the first direction A and contacted with air and the corneal endothelium layer contacted with the tissue culture media. After 7 days of cultivation, the cell morphology and the analysis of cell density of the corneal endothelium layer were shown in FIG. 7 and FIG. 8. The density of the corneal endothelial cells of the example on day 0 was 3766.7±332.9 cells/mm^2, 4572.2±179.8 cells/mm^2 on day 5, and 4950.0±304.1 cells/mm^2 on day 7. […] According to the result, the corneal endothelial cell density may be increased in the LPA-treated example.

[3] = test system: corneal endothelial cells of rabbit corneal tissue; assay: Morphology of the corneal endothelial cells of the corneal tissue (ZO-1 immunostaining); type: cell-based; settings: 10 μmol/L LPA, 7 days
Method: (§1) The rabbit corneal tissues were placed individually in the tissue culture dishes 100, cultivated with the tissue culture media (DMEM basal medium, 10% FBS, and 25 μg/mL gentamycin) added with 10 μmol/L LPA (Example) or without LPA (Comparative example), and incubated at 37° C. with 5% CO2 for 7 days, wherein a portion of the corneal epithelium layer of the rabbit corneal tissues faced toward the first direction A and contacted with air and the corneal endothelium layer contacted with the tissue culture media. The corneal endothelium layer was immunostained for ZO-1 on day 0 and day 7 for observing the cell morphology of the corneal endothelial cells of the corneal tissue.

[4] = test system: corneal endothelial cells of rabbit corneal tissue; assay: Evaluation of the cell proliferation of the corneal tissue (BrdU labeling); type: cell-based; settings: 10 μmol/L LPA, 7 days, BrdU from day 5 to day 7
Method: as §1, with “Bromodeoxyuridine (BrdU)” for “The corneal endothelium layer”, “added to the culture media from” for “immunostained for ZO-1 on”, “5 to” for “0 and”, “proliferation” for “cell morphology”, “cells.” for “corneal endothelial cells of the corneal tissue.”

[5] = test system: damaged rabbit corneal endothelium layer; assay: Healing effect of the damaged corneal endothelium layer of the corneal tissue (Alizarin Red S staining); type: cell-based; settings: 20 μmol/L LPA
Method: A polyvinylidene fluoride (PVDF) filter membrane with regularly punched-out holes was used to cover the rabbit corneal endothelium layer; exposing the inner damage zone (I) scraped with Cellulose Eye Spears. The rest area of the corneal endothelium layer was defined as the outer damage zone (O). The damaged corneal tissues were placed individually in the tissue culture dishes 100, cultivated with the tissue culture media (DMEM basal medium, 10% FBS, and 25 μg/mL gentamycin) added with 20 μmol/L LPA (Example) or without LPA (Comparative example), and incubated at 37° C. with 5% CO2, wherein a portion of the corneal epithelium layer of the rabbit corneal tissues faced toward the first direction A and contacted with air and the corneal endothelium layer contacted with the tissue culture media. The inner damage zone (I) and the outer damage zone (O) of the corneal tissues on day 0 and day 2 were observed using Alizarin Red S staining. The morphology of the corneal tissue stained by Alizarin Red S was shown in FIG. 12, wherein the stained area (brown color) represented the corneal […] of the inner damage zone (I) and the unstained area represented the corneal endothelial cells of the outer zone (O). […] Refer to FIG. 14, the corneal endothelial cell density of the inner damage zone of the LPA-treated example was 1358±8 0.4 cells/mm^2, and the circularity and aspect ratio of the corneal endothelial cells were 0.68±0.15 and 2.39±1.14. However the corneal endothelial cell density of the inner damage zone of the comparative example was 900.0±198.4 cells/mm^2, and the circularity and aspect ratio of the corneal endothelial cells were 0.43±0.14 and 4.91±2.43. According to the results, the addition of LPA can stimulate cell proliferation of the damaged corneal tissue. Also, LPA enhanced the repopulation of the neighbor corneal endothelial cells to the damage zones.

[6] = test system: corneal endothelial cells of transplanted damaged corneal tissue; assay: Evaluation of corneal tissue transplantation into rabbit eyes; type: in vivo; settings: damaged cornea cultivated 2 days with 20 μmol/L LPA, day 6
Method: The damaged corneal tissues were prepared using the PVDF filter membrane described above (please refer to the above paragraph). Then, those damaged corneal tissues were placed individually in the tissue culture dishes 100, cultivated with the tissue culture media (DMEM basal medium, 10% FBS, and 25 μg/mL gentamycin) added with 20 μmol/L LPA (Example) or without LPA (Comparative example 1), and incubated at 37° C. with 5% CO2, wherein a portion of the corneal epithelium layer of the rabbit corneal tissues faced toward the first direction A and contacted with air and the corneal endothelium layer contacted with the tissue culture media. After 2 days of cultivation, the damaged corneal tissues were transplanted into rabbit eyes. In addition, total corneal endothelium scrapping and undamaged mock donor corneas were also prepared to serve as comparative examples 2 and 3. External eye photography was taken in the rabbits after transplantation on day 0 and day 6, respectively. Following sacrifice on day 6, the corneal endothelial cells were stained with Alizarin Red S for observations of the cell morphology of the corneal endothelial cells in all density zones (A) (average of high-density and low-density zones) and cell shape in low-density zone (L) were examined. […] Please refer to FIG. 16 showing the analysis of the corneal endothelial cell density, circularity, and aspect ratio. The corneal endothelial cell density of the example was 2200.0±90.1 cells/mm^2, and the circularity and the aspect ratio of the corneal endothelial cells of example 1 were 0.84±0.05 and 1.35±0.02. However, in comparative example 1, the cell density was 1700.0±288.3 cells/mm^2, the circularity was 0.69±0.12, and the aspect ratio was 2.12±1.13.

[7] = test system: human corneal stromal cells; assay: Gene expression analysis using cDNA microarray; type: cell-based; settings: 20 μmol/L LPA, 2 days
Method: (§2) The gene expression profiling and the cytokine of the human corneal stromal cells were analyzed using cDNA microarray chip and Cytokine Array G5 chip. The human corneal stromal cells were cultured with culture media (DMEM basal medium, 10% FBS, and 25 μg/mL gentamycin) added with 20 μmol/L LPA (served as an Example) or without adding LPA (Comparative example) and incubated at 37° C. with 5% CO2. After 2 days of cultivation, the total RNA from the human corneal stromal cells in example and comparative example were isolated with the TRIzol reagent and purified using RNeasy column. After amplification and labeling the total RNA samples, GeneChip hybridization was performed and a GeneArray G7 scanner was used to scan the results. The culture media from the example and the comparative example were collected and the cytokines were analyzed using a human cytokine antibody array. […] It was confirmed that LPA stimulated the proliferation of the endothelial cells of the corneal tissue via two pathways including directly affecting the endothelial cells and stimulating the secretion of CCL20 and IL-1β from the […].

[8] = test system: human corneal stromal cells; assay: Cytokine analysis of culture media using human cytokine antibody array; type: cell-based; settings: 20 μmol/L LPA, 2 days
Method: as §2

[9] = test system: corneal endothelial cells of human corneal residual tissue; assay: Proliferation and morphology of corneal endothelial cells of human corneal residual tissue (ZO-1 and Ki-67 immunostaining); type: cell-based; settings: 20 μmol/L LPA, Day 7, tissue immersed
Method: The cell morphology, cell density, and cell proliferation of the present evaluation were performed through immunostaining.
One-third of the human corneal residual tissue samples were used for immunostaining for ZO-1 directly (Day 0), while the remaining two-thirds were immersed and placed endothelial side up in the tissue culture media (DMEM basal medium, 10% FBS, and 25 μg/mL gentamycin) added with 20 μmol/L LPA (served as an Example) or without adding LPA (Comparative example) and incubated at 37° C. with 5% CO2. 7 days later, the tissues were cut into halves and subjected to immunostaining for ZO-1 and Ki-67 to evaluate the effects of LPA treatment on corneal endothelial cell density and cell proliferation. […] The corneal endothelial cell density of the LPA-treated example and the comparative example were 2848.8 cells/mm^2±331.7 cells/mm^2 and 2004.7 cells/mm^2±220.2 cells/mm^2.

lysophosphatidic acid [LPA]
corneal endothelial cell proliferation (cell number) [1]: significantly stimulated corneal endothelial cell proliferation | density of the corneal endothelial cells ([2]; day 0): 3766.7±332.9 cells/mm^2 | density of the corneal endothelial cells ([2]; day 5): 4572.2±179.8 cells/mm^2 | density of the corneal endothelial cells ([2]; day 7): 4950.0±304.1 cells/mm^2 | morphology of the corneal endothelial cells (ZO-1) [3]: not altered | BrdU labeling cells [4]: 35.2%±16.1% | aspect ratio of the corneal endothelial cells ([5]; day 2, inner damage zone): 2.39±1.14 | circularity of the corneal endothelial cells ([5]; day 2, inner damage zone): 0.68±0.15 | repopulation of the inner damage zone (I) ([5]; two days after tissue cultivation): repopulated by neighbor corneal endothelial cells | aspect ratio of the corneal endothelial cells [6]: 1.35±0.02 | circularity of the corneal endothelial cells [6]: 0.84±0.05 | corneal endothelial cell density [6]: 2200.0±90.1 cells/mm^2 | transparency of the transplanted corneal tissue [6]: remained transparent | Gene expression in stromal cells: 1L1RN (Interleukin 1 receptor antagonist) [7]: 17.39 fold change | Gene expression in stromal cells: 1L7R (Interleukin 7 receptor) [7]: 15.03 fold change | Gene expression in stromal cells: CCL5 [7]: 17.63 fold change | Gene expression in stromal cells: CCL7 [7]: 11.39 fold change | Gene expression in stromal cells: CCL8 [7]: 15.89 fold change | Gene expression in stromal cells: CCL20 [7]: 625.99 fold change | Gene expression in stromal cells: CSF3 [7]: 85.04 fold change | Gene expression in stromal cells: CXCL3 [7]: 11.31 fold change | Gene expression in stromal cells: CXCL5 [7]: 22.32 fold change | Gene expression in stromal cells: CXCL10 [7]: 20.97 fold change | Gene expression in stromal cells: EPGN [7]: 10.85 fold change | Gene expression in stromal cells: ESM1 [7]: 20.11 fold change | Gene expression in stromal cells: IL1A (Interleukin 1 alpha) [7]: 58.49 fold change | Gene expression in stromal cells: IL1B [7]: 572.05 fold change | Gene expression in stromal cells: INHBA [7]: 20.97 fold change | Gene expression in stromal cells: OLR1 [7]: 24.25 fold change | Cytokine content in media: CCL20 [8]: 3.26 fold change | Cytokine content in media: CSF3 [8]: 0.85 fold change | Cytokine content in media: IL1A [8]: 0.80 fold change | Cytokine content in media: IL1B [8]: 1.73 fold change | Ki-67-positive cells [9]: 11.86%±2.80% | corneal endothelial cell density [9]: 2848.8 cells/mm^2 | morphology of corneal endothelial cells (ZO-1) [9]: not altered
